{"source": "patent US20220193016A1", "about": "“COMPOSITIONS, METHODS AND USES FOR TARGETING C-TERMINAL BINDING PROTEIN (CtBP) IN [sequence] BRAIN INJURY” (THE REGENTS OF THE UNIVERSITY OF COLORADO, A BODY CORPORATE, priority 2019, published 2022)", "key": {"[1]": {"test_system": "repetitive mild TBI (two 0.5 J impacts 24 h apart)", "test": "Repetitive mild TBI in mice (NSS, brain mRNA)", "assay_type": "in vivo, mouse", "protocol": "In another exemplary experiment, mice (n=4 per group) were subjected to a single mild TBI of 0.5 J dose at 0 h (sTBI) or two doses of 0.5 J mild TBI (rTBI) that were 24 h apart, at 0 h and 24 h. Animals with rTBI were separated into three. groups untreated, intraperitoneally injected with MTOB (860 mg/kg) or NSC95397 (1.5 mg/kg) at 1 h and 18 h. Animals were tested right before the two MTOB injection (0 h and 18 h) and then daily for neurobehavioral preformance. At the end point (72 h), the brain and circulating leukocytes were collected for molecular and immunostaining analyses.\nFIGS. 9A-9D. Administration of MTOB and NSC95397 after a single mild TBI effectively subdues neuroinflammation and improves neurological outcome elicited by a second mild TBI. Mice (n=4 per group) were subjected to a single mild TBI of 0.5 J dose at 0 h (sTBI) or two doses of 0.5 J mild TBI, 24 h apart, at 0 h and 24 h (rTBI). The three rTBI groups were either untreated, treated with MTOB (860 mg/kg) or NSC95397 (1.5 mg/kg) at […] and 18 h. (9A) Neurobehavioral severity scale (NSS) analysis was performed at the indicated time points after the first TBI; the scores were shown as mean+SD. (9B) Bar graphs represent mean±SD of fold changes in mRNA levels in the brain. (9A) Experimental timeline. Mice received a single head impact of 0.5 J energy (1×TBI), or two 0.5 J impacts (2×TBI) spaced 24 h apart. […]"}, "[2]": {"test_system": "DNFB-induced contact hypersensitivity (CHS)", "test": "DNFB mouse model of contact hypersensitivity", "assay_type": "in vivo", "conditions": "peptides topically on the ear day 6 through day 9", "excerpt": "In another exemplary method, FIG. 14A-14B illustrate the effectiveness of additional CtBP inhibiting peptides in reducing skin inflammation caused by sensitization and elicitation with the hapten 2,4-dinitrofluorobenzene (DNFB). Peptides MH-3, MH-4, MH-6 and MH-7 were derived from MH-2, all containing a polyarginine sequence to promote membrane transduction, with variations at the linker or flanking sequence of the PIDLS motif. […] The thickness of the epidermis of the ear is indicated by the red square bracket. It is noted that the DNFB-induced CHS in mice is an established model for human allergic contact dermatitis, both of which are T cell-mediated delayed hypersensitivity responses. Mice (n=3) were sensitized on day 1 with […] of 0.5% DNFB on the abdomen surface and challenged on day 6 with […] of 0.5% DNFB on both sides of the ears to trigger T memory cell-mediated hypersensitivity reaction. Peptides ([…]) were topically administered on both sides of the ear 1 h after the DNFB application on day 6 through day 9. Ear swelling and reddening were examined daily till the end point (day 9)."}, "[3]": {"test_system": "imiquimod-induced psoriasis-like skin inflammation", "test": "Imiquimod animal model of psoriasis-like skin inflammation", "assay_type": "in vivo, mice", "conditions": "peptides topically daily from day 3 of imiquimod course; day 7"}, "[4]": {"test_system": "LPS-activated primary astrocytes", "test": "LPS-induced expression of CtBP target genes in primary astrocytes (mRNA)", "assay_type": "cell-based", "conditions": "primary astrocytes from neonatal mouse brain, data not shown"}, "[5]": {"test_system": "isolated mouse hippocampus", "test": "LPS-induced expression of CtBP target genes in isolated mouse hippocampus", "conditions": "20 mM Pep1-E1As 2 h, then 200 ng/mL LPS 2 h; mRNA, FIG. 6C", "protocol": "In another exemplary method, a CtBP inhibitor was analyzed for effects on CtBP target gene expression using methods disclosed herein. […] FIG. 6A represents primary microglia that were incubated with 20 μM Pep1-E1As for 2 hours followed by 2 hours of treatment with 200 ng/mL LPS. Bar graphs represent mean±SD of fold changes in mRNA levels. […] FIG. 6C represents isolated mouse hippocampus that were incubated with […] Pep1-E1As for 2 hours followed by 2 hours treatment with 200 ng/mL LPS. Bar graphs represent mean±SD of fold changes in mRNA levels."}, "[6]": {"test_system": "LPS-activated primary microglia", "test": "LPS-induced expression of CtBP target genes in primary microglia (mRNA)", "assay_type": "cell-based, mouse", "conditions": "for LPS-induced expression of the CtBP-controlled inflammatory genes: primary microglia from neonatal mouse brain, 20 μM peptide 2 h, then 200 ng/mL LPS 2 h, mRNA"}, "RAW264.7 cells": {"test_system": "RAW264.7 cells", "test": "Expression of CtBP target genes in LPS-activated RAW264.7 macrophage cell line (RT-qPCR)", "assay_type": "cell-based, mouse", "conditions": "siRNA 24 h, then LPS 200 ng/ml 6 h", "protocol": "(§1) Murine RAW264.7 (A) and BV2 (B) cells were transfected with siRNAs specific for CtBP1 and CtBP2 or scrambled control siRNAs for a period of 24 h, followed by LPS stimulation (200 ng/ml) for 6 h. Total RNA was extracted and analyzed by the RT-qPCR. Relative mRNA expression was normalized to that of ACTB and depicted as fold changes vs. scrambled siRNA transfected and non-stimulated control (Untreated). Data are presented as mean±SD. n=3; **p<0.01, ***p<0.001. FIG. 2C illustrates LPS-induced binding of CtBP1, CtBP2 and p300 to the IL1β, IL6, TNFα and S100A8 gene promoters. Chromatin fractions from control and LPS-treated BV2 cells were precipitated with antibodies specific to CtBP1, CtBP2 and p300. Bars represent fold changes of relative ChIP signals normalized to the respective controls.\n(§2) In this exemplary study, cells were pretreated with 0.5 or 2.5 mM MTOB for 2 h or 18 h, then with 100 ng/mL LPS for an additional 2 h before being harvested for analysis, using RT-qPCR. Bar graphs represent mean±SD of fold changes in mRNA levels. […]\nIn another exemplary method as illustrated in FIG. 11 relative CtBP1, CtBP2, IL6, S100A8, NRLP3, E-cadherin and Bax mRNA levels in RAW264.7 macrophages stimulated with 100 ng/ml of LPS for 6 h before post-treatment with MTOB for 2 h and at dosages of 0.5 mM and 2.5 mM MTOB sodium salt were analyzed. […]"}, "BV2 cells": {"test_system": "BV2 cells", "test": "Expression of CtBP target genes in LPS-activated BV2 microglia cell line (RT-qPCR)", "assay_type": "cell-based, mouse", "conditions": "siRNA 24 h, then LPS 200 ng/ml 6 h", "protocol": "In one exemplary method, BV2 cells were treated with CtBP-specific siRNAs 24 hours prior to a 6-hour treatment with LPS. In this example, siCtBP1 (SEQ. NO.1) and siCtBP2 (SEQ. NO.2) were used. Relative mean mRNA levels (±SD) were determined by RT-qPCR, performed in triplicate and in two independent experiments.\nas §1, §2"}}}
{"compound": "O=C1C(SCCO)=C(SCCO)C(=O)c2ccccc21", "note": "[NSC95397, 2,3-Bis[(2-hydroxyethyl)thio]-1,4-naphthoquinone]", "values": [{"measurement": "inflammatory gene induction (brain mRNA) after repetitive mild TBI", "setting": "[1]; i.p. MTOB 860 mg/kg or NSC95397 1.5 mg/kg at 1 h and 18 h, 72 h after first injury", "result": "significantly reduced"}, {"measurement": "neurobehavioral defects (NSS) after repetitive mild TBI", "setting": "[1]; i.p. MTOB 860 mg/kg or NSC95397 1.5 mg/kg at 1 h and 18 h after first injury", "result": "significantly reduced"}]}
{"compound": "MH-2: SEQ ID NO. 19 RRRRRRRRGGPIDLSKKA (18 aa) (Synthetic Sequence - MH-2)", "values": [{"measurement": "epidermal hyperproliferation of the ear", "setting": "[2]", "result": "reducing epidermal hyperproliferation and immunocyte infiltration"}, {"measurement": "immunocyte infiltration (CD45 immunohistochemistry)", "setting": "[2]", "result": "reducing epidermal hyperproliferation and immunocyte infiltration"}, {"measurement": "imiquimod-induced epidermal proliferation (H&E, epidermis thickness)", "setting": "[3]", "result": "as effective in reducing imiquimod-induced epidermal proliferation as the prototype Pep1-E1A"}]}
{"compound": "Pep1-E1AWT: SEQ ID NO. 5 GSHMKETWWETWWTEWSQPKKKRKVLEEPGQPLDLSCKRPRDYKDDDDK; FLAG-tagged Pep1 fusion with wild-type E1A sequence", "values": [{"measurement": "LPS-induced expression of the CtBP-controlled inflammatory genes", "setting": "[4]", "result": "inhibited LPS-induced expression"}, {"measurement": "LPS-induced expression of the CtBP-controlled inflammatory genes", "setting": "[4]; listed as Pep1-E1A", "result": "strongly suppressed"}, {"measurement": "expression of CtBP target gene in LPS-activated isolated mouse hippocampus", "setting": "[5]", "result": "inhibition of expression of CtBP target gene"}, {"measurement": "imiquimod-induced epidermal proliferation (H&E, epidermis thickness)", "setting": "[3]", "result": "reducing imiquimod-induced epidermal proliferation"}, {"measurement": "LPS-induced expression of the CtBP-controlled inflammatory genes", "setting": "[6]", "result": "inhibited LPS-induced expression"}, {"measurement": "LPS-induced expression of the CtBP-controlled inflammatory genes", "setting": "[6]; listed as Pep1-E1A", "result": "strongly suppressed"}, {"measurement": "basal mRNA levels of CDH1 and BAX (genes repressed by CtBPs)", "setting": "[6]; primary microglia, FIG. 6A right panel", "result": "increased the basal mRNA levels"}]}
{"compound": "siRNAs specific for CtBP1 and CtBP2: simultaneous use of mouse siCtBP1 (SEQ. NO.1) and siCtBP2 (SEQ. NO.2) (chain 1 UCUUCCACAGUGUGACUGCGUUAUUUU; chain 2 GCCUUUGGAUUCAGCGUCAUAUUU; listed as RNA, chemistry not given here)", "values": [{"measurement": "mRNA expression of proinflammatory genes after knockdown", "setting": "RAW264.7 cells", "result": "suppresses mRNA expression of proinflammatory genes"}, {"measurement": "mRNA expression of proinflammatory genes after knockdown", "setting": "BV2 cells", "result": "suppresses mRNA expression of proinflammatory genes"}]}
